Reference: patent publication US7638639B2, “Substituted pyrrolidine and related compounds” (Theravance, Inc., priority 2003, dated 2009)
Read-outs that look alike come from different tables or passages of the source.

How the values were obtained:
[1] = biological target: T1, hM3 muscarinic receptor subtype (Homo sapiens, UniProt P20309); experiment: Radioligand binding assay ([3H]-NMS displacement), hM3; details: for Δ hM3: change in binding affinity relative to compound of the invention: ratio of hM3 Ki values
T1 construct: expressed in transfected cells
Description: (§1) A. Membrane Preparation from Cells Expressing hM1, hM2, hM3 and hM4 Muscarinic Receptor Subtypes
(§2) CHO (Chinese hamster ovary) cell lines stably expressing cloned human hM1, hM2, hM3 and hM4 muscarinic receptor subtypes, respectively, were grown to near confluency in medium consisting of HAM's F-12 supplemented with 10% FBS (Fetal Bovine Serum) and 250 μg/mL Geneticin. The cells were grown in a 5% CO2, 37° C. incubator and lifted with 2 mm EDTA in dPBS. Cells were collected by 5 minute centrifugation at 650×g, and cell pellets were either stored frozen at −80° C. or membranes were prepared immediately. For membrane preparation, cell pellets were resuspended in lysis buffer and homogenized with a Polytron PT-2100 tissue disrupter (Kinematica AG; 20 seconds×2 bursts). Crude membranes were centrifuged at 40,000×g for 15 minutes at 4° C. The membrane pellet was then resuspended with resuspension buffer and homogenized again with the Polytron tissue disrupter. The protein concentration of the membrane suspension was determined by the method described in Lowry, O. et al., 1951, […]: 193, 265. All membranes were stored frozen in aliquots at −80° C. or used immediately. Aliquots of prepared hM5 receptor membranes were purchased directly from Perkin Elmer and stored at −80° C. until use.
(§3) B. Radioligand Binding Assay on Muscarinic Receptor Subtypes hM1, hM2, hM3, hM4 and hM5
(§4) Radioligand binding assays were performed in 96-well microtiter plates in a total assay volume of 100 μL. CHO cell membranes stably expressing either the hM1, hM2, hM3, hM4 or hM5 muscarinic subtype were diluted in assay buffer to the following specific target protein concentrations (μg/well): 10 μg for hM1, 10-15 μg for hM2, 10-20 μg for hM3, 10-20 μg for hM4, and 10-12 μg for hM5. The membranes were briefly homogenized using a Polytron tissue disruptor (10 seconds) prior to assay plate addition. Saturation binding studies for determining KD values of the radioligand were performed using L-[N-methyl-3H]scopolamine methyl chloride ([^3H]-NMS) (TRK666, 84.0 Ci/mmol, Amersham Pharmacia Biotech, Buckinghamshire, England) at concentrations ranging from 0.001 nM to 20 nM. Displacement assays for determination of Ki values of test compounds were performed with [^3H]-NMS at 1 nM and eleven different test compound concentrations. The test compounds were initially dissolved to a concentration of 400 μM in dilution buffer and then serially diluted 5× with dilution buffer to final concentrations ranging from […] to […]. The addition order and volumes to the assay plates were as follows: 25 μL radioligand, 25 μL diluted test compound, and 50 μL membranes. Assay plates were incubated for 60 minutes at 37° C. Binding reactions were terminated by rapid filtration over GF/B glass fiber filter plates (PerkinElmer Inc., Wellesley, Mass.) pre-treated in 1% BSA. Filter plates were rinsed three times with wash buffer (10 mm HEPES) to remove unbound radioactivity. Plates were then air dried, and 50 μL Microscint-20 liquid scintillation fluid (PerkinElmer Inc., Wellesley, Mass.) was added to each well. The plates were then counted in a PerkinElmer Topcount liquid scintillation counter (PerkinElmer Inc., Wellesley, Mass.). Binding data were analyzed by nonlinear regression analysis with the GraphPad Prism Software package (GraphPad Software, Inc., San Diego, Calif.) using the one-site competition model. Ki values for test compounds were calculated from observed IC50 values and the KD value of the radioligand using the Cheng-Prusoff equation (Cheng Y; Prusoff W H. (1973) Biochemical Pharmacology, 22(23):3099-108). Ki values were converted to pKi values to determine the geometric mean and 95% confidence intervals. These summary statistics were then converted back to Ki values for data reporting.

[2] = biological target: T2, hM2 muscarinic receptor subtype (Homo sapiens, UniProt P08172); experiment: Radioligand binding assay ([3H]-NMS displacement), hM2; details: for Ki: CHO cell membranes, [3H]-NMS 1 nM, read-out: hM2 binding affinity (Ki); for Δ hM2: change in binding affinity relative to compound of the invention: ratio of hM2 Ki values
T2 construct: expressed in transfected cells
T2 sequence (P08172 1-466): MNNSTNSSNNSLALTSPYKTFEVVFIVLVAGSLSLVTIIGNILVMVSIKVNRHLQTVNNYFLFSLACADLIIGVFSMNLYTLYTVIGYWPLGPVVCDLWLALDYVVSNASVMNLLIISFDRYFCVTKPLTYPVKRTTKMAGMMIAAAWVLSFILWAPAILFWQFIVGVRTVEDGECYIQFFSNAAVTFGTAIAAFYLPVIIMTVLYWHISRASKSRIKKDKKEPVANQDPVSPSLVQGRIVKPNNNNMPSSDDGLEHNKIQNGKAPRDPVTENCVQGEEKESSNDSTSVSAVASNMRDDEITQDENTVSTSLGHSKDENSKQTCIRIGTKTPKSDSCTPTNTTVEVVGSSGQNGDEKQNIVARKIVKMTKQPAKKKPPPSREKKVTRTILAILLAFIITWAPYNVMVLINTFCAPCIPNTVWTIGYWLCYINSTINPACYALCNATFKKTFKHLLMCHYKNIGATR
Description: as §1, §2, §3, §4

[3] = CHO cell membranes, [3H]-NMS 1 nM, read-out: hM3 binding affinity (Ki)
[4] = radioligand displacement, read-out: Ki value for hM3

T1 sequence (P20309 whole entry): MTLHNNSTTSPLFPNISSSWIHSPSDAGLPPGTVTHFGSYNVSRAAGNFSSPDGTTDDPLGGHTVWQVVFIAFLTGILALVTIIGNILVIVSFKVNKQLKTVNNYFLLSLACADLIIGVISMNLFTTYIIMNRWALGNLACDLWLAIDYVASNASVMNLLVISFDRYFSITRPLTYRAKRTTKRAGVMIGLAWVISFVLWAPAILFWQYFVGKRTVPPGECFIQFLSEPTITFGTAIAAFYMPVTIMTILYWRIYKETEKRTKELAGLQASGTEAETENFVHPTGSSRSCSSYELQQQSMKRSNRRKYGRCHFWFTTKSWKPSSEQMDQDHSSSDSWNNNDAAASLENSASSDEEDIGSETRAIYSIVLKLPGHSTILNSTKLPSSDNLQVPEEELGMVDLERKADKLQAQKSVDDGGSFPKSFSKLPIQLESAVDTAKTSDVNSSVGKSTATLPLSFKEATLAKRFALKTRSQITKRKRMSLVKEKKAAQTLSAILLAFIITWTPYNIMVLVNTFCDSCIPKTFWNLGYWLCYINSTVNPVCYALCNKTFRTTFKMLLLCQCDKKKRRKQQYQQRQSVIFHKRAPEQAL

Structure (SMILES)	Ki [1, 3]	Δ hM3: change in binding affinity relative to compound of the invention [1]	Ki [2]	Δ hM2: change in binding affinity relative to compound of the invention [2]	Ki [1, 4]
CN(C)CCCCCCCCN1CC[C@@H](C(C(N)=O)(c2ccccc2)c2ccccc2)C1 [Comp. Ex. A, 2-[(S)-1-(8-Dimethylaminooctyl)pyrrolidin-3-yl]-2,2-diphenylacetamide, reference compound]	2.5 nM	×52	18 nM	×39	
CC(CCCCCCCN1CC[C@@H](C(C(N)=O)(c2ccccc2)c2ccccc2)C1)N(C)CCO (stereo partly drawn) [Comp. Ex. C, 2-{(S)-1-[8-N-(2-Hydroxyethyl)-N-methylaminononyl]pyrrolidin-3-yl}-2,2-diphenylacetamide, reference compound]	73 nM		83 nM		
CNCCCCCCCCCN1CC[C@@H](C(C(N)=O)(c2ccccc2)c2ccccc2)C1 [Example 14, 2-[(S)-1-(9-Methylaminnonyl)pyrrolidin-3-yl]-2,2-diphenylacetamide]	0.66 nM	×37	1.7 nM	×70	< 50 nM
NC(=O)C(c1ccccc1)(c1ccccc1)[C@H]1CCN(CCCCCCCCNCc2ccccc2)C1 [Example 39, 2-[(R)-1-(8-Benzylaminooctyl)pyrrolidin-3-yl]-2,2-diphenylacetamide]					< 50 nM
NC(=O)C(c1ccccc1)(c1ccccc1)[C@@H]1CCN(CCCCCCCCNCCO)C1 [Example 8, 2-{(S)-1-[8-(2-Hydroxyethyl)aminooctyl]pyrrolidin-3-yl}-2,2-diphenylacetamide]	5.1 nM	×14	13 nM	×6.3	
CNCCCCCCCCN1CC[C@H](C(C(N)=O)(c2ccccc2)c2ccccc2)C1 [Example 27, 2-[(R)-1-(8-Methylaminooctyl)pyrrolidin-3-yl]-2,2-diphenylacetamide]					< 50 nM
NCCCCCCCCN1CC[C@@H](C(C(N)=O)(c2ccccc2)c2ccccc2)C1 [Comp. Ex. D, 2-[(S)-1-(8-Aminooctyl)pyrrolidin-3-yl]-2,2-diphenylacetamide, reference compound]	50 nM		150 nM		
NC(=O)C(c1ccccc1)(c1ccccc1)[C@@H]1CCN(CCCCCCCCCNCc2ccccc2)C1 [Example 26, 2-[(S)-1-(9-Benzylaminononyl)pyrrolidin-3-yl]-2,2-diphenylacetamide]					< 50 nM
CN(C)CCCCCCCCCN1CC[C@@H](C(C(N)=O)(c2ccccc2)c2ccccc2)C1 [Comp. Ex. B, 2-[(S)-1-(9-Dimethylaminononyl)pyrrolidin-3-yl]-2,2-diphenylacetamide, reference compound]	25 nM		120 nM		
